The target in this test is T1, PD-1/PD-L1 interaction (Homo sapiens, UniProt Q9NZQ7).
T1 construct: Tag1 or Tag2 (undisclosed kit tag); purchased CisBio 63ADK000CPAPEG
T1 sequence (Q9NZQ7 19-238 limits assumed): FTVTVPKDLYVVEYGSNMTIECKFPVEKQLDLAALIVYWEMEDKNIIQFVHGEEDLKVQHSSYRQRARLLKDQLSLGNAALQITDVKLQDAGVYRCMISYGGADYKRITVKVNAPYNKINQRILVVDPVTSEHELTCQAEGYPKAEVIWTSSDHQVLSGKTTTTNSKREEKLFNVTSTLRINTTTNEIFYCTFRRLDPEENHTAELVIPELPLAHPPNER
Nature of the test: PD-1/PD-L1 Homogenous Time-Resolved Fluorescence (HTRF) binding assay. To be noted: Biochemical PD1/PD-L1 inhibition. Here is the method:
PD-L1 Enzyme Assay: Homogenous Time-Resolved Fluorescence (HTRF) Binding Assay
All binding studies were performed using PD-1/PD-L1 Binding Assay Kit from CisBio (Catalog #63ADK000CPAPEG), according to the manufacturer's protocol. The interaction between Tag1-PD-1 and […] was detected by anti-Tag1-Eu^3+ (HTRF donor) and anti-Tag2-XL665 (HTRF acceptor). When the donor and acceptor antibodies were brought to close proximity due to PD-1 and PD-L1 binding, excitation of the donor antibody triggered fluorescent resonance energy transfer (FRET) towards the acceptor antibody, which in turn emitted specifically at 665 nm. This specific signal is positively proportional to PD-1/PD-L1 interaction. The compounds blocking PD-1/PD-L1 interaction will cause a reduction in HTRF signal. The necessary reagents were mixed in the following order: 2 μl compounds (or diluents buffer), 4 μl PD-L1 protein, 4 μl PD-1 protein. After an incubation of 15 minutes, 5 μl of anti-Tag1-Eu^3+ and 5 μl of anti-Tag2-XL665 were added. The plate was sealed and incubated at RT for 1 h. The fluorescence emission was read at two different wavelengths (665 nm and 620 nm) on a BMG PheraStar® multiplate reader. Results were calculated from the 665 nm and 620 nm fluorescence signal and expressed in HTRF ratio=(665 nm/620 nm)×[…].
For `COc1nc(OCc2cccc(-c3ccccc3)c2C)ncc1CN1CCC[C@@H]2C[C@@]21C(=O)O` (racemic) [Compound 48], the 50% inhibitory concentration (IC50) – broadly, the midpoint of a concentration-inhibition curve – was greater than 500 nM.

As for `COc1nc(OCc2cccc(-c3ccccc3)c2C)nc(OC)c1CN1CCCC2C[C@]21C(=O)O` (single isomer, unassigned) [Compound 4], the concentration for half-maximal inhibition (IC50) was less than 100 nM.

In the case of `COc1nc(OCc2cccc(-c3ccccc3)c2C)nc(OC)c1CN1CCC[C@@H]2C[C@@]21C(=O)O` (single isomer, unassigned) [Compound 5], the IC50 is 100 to 500 nM.

The compound `CCOc1nc(OCc2cccc(-c3ccccc3)c2C)ncc1CN1C[C@H](O)CC1C(=O)O` (stereo in doubt) [Compound 30, (2R,4R)-1-((4-ethoxy-2-((2-methyl-[1,1′-biphenyl]-3-yl)methoxy)pyrimidin-5-yl)methyl)-4-hydroxypyrrolidine-2-carboxylic acid] had an IC50 of 100 to 500 nM.

Consider `COc1nc(OCc2cccc(-c3ccc(F)cc3)c2C)ncc1CNCCNC(C)=O` [Compound 1, N-(2-(((2-((4′-fluoro-2-methyl-[1,1′-biphenyl]-3-yl)methoxy)-4-methoxypyrimidin-5-yl)methyl)amino)ethyl)acetamide], for which the IC50 is greater than 500 nM.

Compound `CCOc1nc(OCc2cccc(-c3ccccc3)c2C)ncc1CN(C)CC(=O)O` [Compound 2, N-((4-ethoxy-2-((2-methyl-[1,1′-biphenyl]-3-yl)methoxy)pyrimidin-5-yl)methyl)-N-methyl glycine] showed an IC50 greater than 500 nM.

`COc1nc(OCc2cccc(-c3ccccc3)c2C)nc(OC)c1CNCCNC(C)=O` [Compound 3, N-(2-(((4,6-dimethoxy-2-((2-methyl-[1,1′-biphenyl]-3-yl)methoxy)pyrimidin-5-yl)methyl)amino)ethyl)acetamide] returned an IC50 of less than 100 nM.

In turn, `CCOc1nc(OCc2cccc(-c3ccccc3)c2C)nc(OCC)c1CNCCNC(C)=O` [Compound 6, N-(2-(((4,6-diethoxy-2-((2-methyl-[1,1′-biphenyl]-3-yl)methoxy)pyrimidin-5-yl)methyl)amino)ethyl)acetamide] displayed a half-inhibitory concentration (IC50) of 100 to 500 nM.

As to `COc1nc(OCc2cccc(-c3ccccc3)c2C)ncc1CN1CCCC[C@H]1C(=O)O` [Compound 7, (S)-1-((4-methoxy-2-((2-methyl-[1,1′-biphenyl]-3-yl)methoxy)pyrimidin-5-yl)methyl)piperidine-2-carboxylic acid], the half-inhibitory concentration (IC50) is less than 100 nM.

Consider `Cc1c(COc2ncc(CN3CCCC[C@H]3C(=O)O)c(OCc3ccc(F)c(C#N)c3)n2)cccc1-c1ccccc1` [Compound 8, (S)-1-((4-((3-cyano-4-fluorobenzyl)oxy)-2-((2-methyl-[1,1′-biphenyl]-3-yl)methoxy)pyrimidin-5-yl)methyl)piperidine-2-carboxylic acid], for which the IC50 is greater than 500 nM.

`Cc1c(COc2ncc(CN3CCCC[C@H]3C(=O)O)c(OCC(F)(F)F)n2)cccc1-c1ccccc1` [Compound 9, (S)-1-((2-((2-methyl-[1,1′-biphenyl]-3-yl)methoxy)-4-(2,2,2-trifluoroethoxy)pyrimidin-5-yl)methyl)piperidine-2-carboxylic acid] had a half-inhibitory concentration (IC50) greater than 500 nM.

The compound `Cc1c(COc2ncc(CN3CCCC[C@H]3C(=O)O)c(OCCCCO)n2)cccc1-c1ccccc1` [Compound 10, (S)-1-((4-(4-hydroxybutoxy)-2-((2-methyl-[1,1′-biphenyl]-3-yl)methoxy)pyrimidin-5-yl)methyl)piperidine-2-carboxylic acid] came in with an IC50 of 100 to 500 nM.

`COc1nc(OCc2cccc(-c3ccc4c(c3)OCCO4)c2C)nc(OC)c1CN1C[C@H](O)C[C@H]1C(=O)O` [Compound 11, (2S,4R)-1-((2-((3-(2,3-dihydrobenzo[b][1,4]dioxin-6-yl)-2-methylbenzyl)oxy)-4,6-dimethoxypyrimidin-5-yl)methyl)-4-hydroxypyrrolidine-2-carboxylic acid] registered an IC50 of less than 100 nM.

The values above are taken from patent publication US11629135B2 (JUBILANT PRODEL LLC, priority 2017, dated 2023).
